Measurements taken from the NIST ThermoML archive (doi:10.1021/je049918m).
Several values for one entry are separate records, joined by “and”; a condition that tells them apart may be missing. Identical values can stand only once.

Details: Liquid, Falling or rolling sphere viscometry

O [water]
Details | viscosity
255.65 K, 177500 kPa | 2.945 mPa·s
255.65 K, 190300 kPa | 2.955 mPa·s
255.65 K, 196700 kPa | 2.959 mPa·s
255.65 K, 201800 kPa | 2.964 mPa·s
255.65 K, 231800 kPa | 3.003 mPa·s
255.65 K, 257800 kPa | 3.056 mPa·s
255.65 K, 292300 kPa | 3.135 mPa·s
255.65 K, 321100 kPa | 3.217 mPa·s
258.15 K, 159300 kPa | 2.678 mPa·s
258.15 K, 188400 kPa | 2.69 mPa·s
258.15 K, 205200 kPa | 2.708 mPa·s
258.15 K, 209200 kPa | 2.71 mPa·s
258.15 K, 239800 kPa | 2.754 mPa·s
258.15 K, 282600 kPa | 2.834 mPa·s
258.15 K, 309000 kPa | 2.898 mPa·s
258.15 K, 323500 kPa | 2.934 mPa·s
258.15 K, 333200 kPa | 2.957 mPa·s
258.15 K, 354100 kPa | 3.019 mPa·s
258.15 K, 361000 kPa | 3.033 mPa·s
263.15 K, 112000 kPa | 2.258 mPa·s
263.15 K, 112100 kPa | 2.258 mPa·s
263.15 K, 128600 kPa | 2.247 mPa·s
263.15 K, 150800 kPa | 2.244 mPa·s
263.15 K, 180700 kPa | 2.256 mPa·s
263.15 K, 209900 kPa | 2.281 mPa·s
263.15 K, 240100 kPa | 2.315 mPa·s
263.15 K, 270500 kPa | 2.357 mPa·s
263.15 K, 302000 kPa | 2.415 mPa·s
263.15 K, 335400 kPa | 2.481 mPa·s
263.15 K, 386400 kPa | 2.605 mPa·s
268.15 K, 61100 kPa | 1.969 mPa·s
268.15 K, 80800 kPa | 1.942 mPa·s
268.15 K, 98000 kPa | 1.927 mPa·s
268.15 K, 100200 kPa | 1.926 mPa·s
268.15 K, 124200 kPa | 1.914 mPa·s
268.15 K, 151100 kPa | 1.913 mPa·s
268.15 K, 177500 kPa | 1.924 mPa·s
268.15 K, 213300 kPa | 1.949 mPa·s
268.15 K, 245400 kPa | 1.982 mPa·s
268.15 K, 295300 kPa | 2.047 mPa·s
268.15 K, 350800 kPa | 2.138 mPa·s
268.15 K, 376700 kPa | 2.19 mPa·s
268.15 K, 387900 kPa | 2.212 mPa·s
273.15 K, 100 kPa | 1.799 mPa·s and 1.802 mPa·s
273.15 K, 30700 kPa | 1.722 mPa·s
273.15 K, 60400 kPa | 1.678 mPa·s
273.15 K, 90700 kPa | 1.653 mPa·s
273.15 K, 120600 kPa | 1.644 mPa·s
273.15 K, 150300 kPa | 1.649 mPa·s
273.15 K, 180000 kPa | 1.659 mPa·s
273.15 K, 209600 kPa | 1.678 mPa·s
273.15 K, 240300 kPa | 1.704 mPa·s
273.15 K, 270400 kPa | 1.735 mPa·s
273.15 K, 300400 kPa | 1.771 mPa·s
273.15 K, 330300 kPa | 1.81 mPa·s
273.15 K, 359500 kPa | 1.852 mPa·s
273.15 K, 386700 kPa | 1.893 mPa·s
278.15 K, 100 kPa | 1.528 mPa·s
278.15 K, 600 kPa | 1.527 mPa·s
278.15 K, 30700 kPa | 1.481 mPa·s
278.15 K, 60700 kPa | 1.454 mPa·s
278.15 K, 90500 kPa | 1.44 mPa·s
278.15 K, 120300 kPa | 1.439 mPa·s
278.15 K, 150800 kPa | 1.444 mPa·s
278.15 K, 180700 kPa | 1.456 mPa·s
278.15 K, 210700 kPa | 1.476 mPa·s
278.15 K, 240400 kPa | 1.498 mPa·s
278.15 K, 270400 kPa | 1.522 mPa·s
278.15 K, 300600 kPa | 1.555 mPa·s
278.15 K, 330300 kPa | 1.591 mPa·s
278.15 K, 360000 kPa | 1.631 mPa·s
278.15 K, 389000 kPa | 1.672 mPa·s
283.15 K, 100 kPa | 1.313 mPa·s and 1.31 mPa·s
283.15 K, 500 kPa | 1.31 mPa·s
283.15 K, 30700 kPa | 1.28 mPa·s
283.15 K, 60700 kPa | 1.264 mPa·s
283.15 K, 90700 kPa | 1.257 mPa·s
283.15 K, 120800 kPa | 1.257 mPa·s
283.15 K, 150800 kPa | 1.263 mPa·s
283.15 K, 180800 kPa | 1.275 mPa·s
283.15 K, 210200 kPa | 1.293 mPa·s
283.15 K, 240600 kPa | 1.314 mPa·s
283.15 K, 270700 kPa | 1.337 mPa·s
283.15 K, 300200 kPa | 1.362 mPa·s
283.15 K, 330000 kPa | 1.39 mPa·s
283.15 K, 359200 kPa | 1.42 mPa·s
283.15 K, 385200 kPa | 1.45 mPa·s
298.15 K, 100 kPa | 0.892 mPa·s and 0.893 mPa·s
298.15 K, 31000 kPa | 0.888 mPa·s
298.15 K, 61000 kPa | 0.888 mPa·s
298.15 K, 90900 kPa | 0.891 mPa·s
298.15 K, 120700 kPa | 0.898 mPa·s
298.15 K, 150600 kPa | 0.907 mPa·s
298.15 K, 180600 kPa | 0.919 mPa·s
298.15 K, 210600 kPa | 0.933 mPa·s
298.15 K, 240600 kPa | 0.948 mPa·s
298.15 K, 270100 kPa | 0.965 mPa·s
298.15 K, 299700 kPa | 0.983 mPa·s
298.15 K, 329200 kPa | 1.002 mPa·s
298.15 K, 358500 kPa | 1.022 mPa·s
298.15 K, 384300 kPa | 1.042 mPa·s
